The values that follow come from US11597724B2, “Herbicidally active 3-phenylisoxazoline-5-carboxamides of tetrahydro and dihydrofuran carboxylic acids and esters” (Bayer Aktiengesellschaft, priority 2017, dated 2023).

Molecules are shown by their SMILES.

Holding throughout (format): in vivo
For one assay, the system named is Hordeum murinum. Nature of the assay: Pre-emergence herbicidal activity against HORMU. The following applies: dosage 80 g/ha; for pest or weed control at 80 g/ha: Hordeum murinum, 504 h. The text has this:
(§1) 1. Pre-Emergence Herbicidal Action and Crop Plant Compatibility Seeds of monocotyledonous and dicotyledonous weed plants and crop plants are placed in plastic or wood fiber pots and covered with soil. The compounds of the invention, formulated in the form of wettable powders (WP) or as emulsion concentrates (EC), are then applied onto the surface of the covering soil as aqueous suspension or emulsion with addition of 0.5% additive at a water application rate of 600 l/ha (converted). After the treatment, the pots are placed in a greenhouse and kept under good growth conditions for the trial plants. After about 3 weeks, the effect of the preparations is scored visually in comparison with untreated controls as percentages. For example, 100% activity=the plants have died, 0% activity=like control plants. ECHCG: Echinochloa crus-galli HORMU: Hordeum murinum

A short description of assay [1]: Pre-emergence treatment, summary over harmful plants. The following applies: 504 h, application rate of 0.08 kg of active substance or less per hectare, read-out: herbicidal action, pre-emergence treatment (very good activity).
Description: 1. Pre-Emergence Herbicidal Action and Crop Plant Compatibility
as §1, with “Seeds” for “1. Pre-Emergence Herbicidal Action and Crop Plant Compatibility Seeds”, “plants.” for “plants. ECHCG: Echinochloa crus-galli HORMU: Hordeum murinum”
As shown by the results, compounds according to the invention such as, for example, the compounds No. I-21 and other compounds from the tables (for example I-10, I-26, I-09, I-30, I-28, I-29, I-27, I-01, I-06, I-34, I-19, I-11, I-36, I-37, I-38, I-41, I-42, I-43, I-44, I-46, I-49) have, when used for pre-emergence treatment, very good activity (80% to 100% herbicidal action) against harmful plants such as Abutilon theophrasti, Alopecurus myosuroides, Amaranthus retroflexus, Avena fatua, Echinochloa crus-galli, Hordeum murinum, Lolium rigidum, Pharbitis purpurea, Polygonum convolvulus, Setaria viridis, Stellaria media, Veronica persica and Viola tricolor at an application rate of 0.08 kg of active substance or less per hectare.

For a further assay, the system named is Pharbitis purpurea. Description: Pre-emergence herbicidal activity against PHBPU. The settings on record: dosage 80 g/ha; for pest or weed control at 80 g/ha: Ipomoea purpurea, 504 h.
Description: as §1, with “LOLRI: Lolium rigidum PHBPU: Pharbitis purpurea” for “ECHCG: Echinochloa crus-galli HORMU: Hordeum murinum”

The subject of a further assay is Lolium rigidum. Nature of the assay: Pre-emergence herbicidal activity against LOLRI. The following applies: dosage 80 g/ha; for pest or weed control at 80 g/ha: Lolium rigidum, 504 h.
Description: as §1, with “LOLRI: Lolium rigidum PHBPU: Pharbitis purpurea” for “ECHCG: Echinochloa crus-galli HORMU: Hordeum murinum”

For the next assay, the system named is Viola tricolor. Nature of the assay: Pre-emergence herbicidal activity against VIOTR. The settings on record: dosage 80 g/ha.
Description: as §1, with “VIOTR: Viola tricolor” for “ECHCG: Echinochloa crus-galli HORMU: Hordeum murinum”

In turn, `CC(C)(C)OC(=O)[C@H]1C[C@@H](NC(=O)C2(C)CC(c3cccc(F)c3)=NO2)CO1` (mixture of isomers) [I-33, tert-butyl cis-4-[[(5RS)-3-(3-fluorophenyl)-5-methyl-4H-isoxazole-5-carbonyl]amino]tetrahydrofuran-2-carboxylate] showed a pest or weed control at 80 g/ha in the assay with Hordeum murinum of 80%.
Turning to `COC(=O)C1COCC1NC(=O)[C@@]1(C)CC(c2cc(F)cc(F)c2)=NO1` (stereo partly drawn) [I-28, methyl 4-[[(5R)-3-(3,5-difluorophenyl)-5-methyl-4H-isoxazole-5-carbonyl]amino]tetrahydrofuran-3-carboxylate], the pest or weed control at 80 g/ha in assay [1] is 80 to 100%; with Pharbitis purpurea, 90%.
In the assay on Lolium rigidum, `CC(C)OC(=O)[C@H]1C[C@@H](NC(=O)C2(C)CC(c3cccc(F)c3)=NO2)CO1` (mixture of isomers) [I-32, isopropyl cis-4-[[(5RS)-3-(3-fluorophenyl)-5-methyl-4H-isoxazole-5-carbonyl]amino]tetrahydrofuran-2-carboxylate] returned a pest or weed control at 80 g/ha of 100%.
On to `COC(=O)C1COCC1NC(=O)C1(C)CC(c2cc(F)cc(F)c2)=NO1` (stereo not drawn) [I-19, methyl 4-[[3-(3,5-difluorophenyl)-5-methyl-4H-isoxazole-5-carbonyl]amino]tetrahydrofuran-3-carboxylate], for which the pest or weed control at 80 g/ha in assay [1] fell in the range of 80 to 100%.
Take `COC(=O)C1=C[C@H](NC(=O)C2(C)CC(c3cccc(F)c3)=NO2)CO1` (stereo partly drawn) [I-39, methyl (3S)-3-[[3-(3-fluorophenyl)-5-methyl-4H-isoxazole-5-carbonyl]amino]-2,3-dihydrofuran-5-carboxylate]: the pest or weed control at 80 g/ha with Hordeum murinum and in the assay on Lolium rigidum was 100% each time.
For the compound `C=C[C@]1(C(=O)N[C@H]2CO[C@@H](C(=O)OC(C)(C)C)C2)CC(c2cc(F)cc(F)c2)=NO1` (mixture of isomers) [I-38, tert-butyl cis-4-[[(5S)-3-(3,5-difluorophenyl)-5-vinyl-4H-isoxazole-5-carbonyl]amino]tetrahydrofuran-2-carboxylate], the figures for the pest or weed control at 80 g/ha (in the assay with Hordeum murinum; in assay [1]; with Lolium rigidum) were 90%, 80 to 100% and 100%, respectively. Further, in the assay with Viola tricolor, the “Pre-emergence herbicidal activity against VIOTR in %” value turned out to be 100%.
For the compound `CCOC(=O)C1CC(NC(=O)C2(C)CC(c3cc(F)cc(F)c3)=NO2)CO1` (mixture of isomers) [I-43], the “Pre-emergence herbicidal activity against HORMU in %” value in the assay on Hordeum murinum is 90%. Moreover, in the assay with Lolium rigidum, the “Pre-emergence herbicidal activity against LOLRI in %” value was found to be 100%. Moreover, the “Pre-emergence herbicidal activity against VIOTR in %” value in the assay with Viola tricolor came to 90%.
For `COC(=O)[C@@]1(OC)C[C@@H](NC(=O)C2(C)CC(c3cccc(F)c3)=NO2)CO1` (stereo partly drawn) [I-47, methyl (2R,4R)-4-[[3-(3-fluorophenyl)-5-methyl-4H-isoxazole-5-carbonyl]amino]-2-methoxytetrahydrofuran-2-carboxylate], in the assay with Hordeum murinum, the pest or weed control at 80 g/ha came to 90%.
For the compound `COC(=O)C1=C[C@@H](NC(=O)C2(C)CC(c3cccc(F)c3)=NO2)CO1` (stereo partly drawn) [I-46, methyl (3R)-3-[[3-(3-fluorophenyl)-5-methyl-4H-isoxazole-5-carbonyl]amino]-2,3-dihydrofuran-5-carboxylate], the pest or weed control at 80 g/ha with Hordeum murinum is 100%; in assay [1] it was 80 to 100%; with Lolium rigidum, 100%.
In the case of `CC1(C(=O)NC2COC(C(=O)OCc3ccccc3)C2)CC(c2cc(F)cc(F)c2)=NO1` (mixture of isomers) [I-45], the “Pre-emergence herbicidal activity against HORMU in %” value in the assay with Hordeum murinum was determined as 100%. For the same compound, the “Pre-emergence herbicidal activity against PHBPU in %” value in the assay with Pharbitis purpurea was determined as 90%. The “Pre-emergence herbicidal activity against LOLRI in %” value with Lolium rigidum came out at 100%. In addition, the “Pre-emergence herbicidal activity against VIOTR in %” value in the assay with Viola tricolor is listed as 100%.
Consider `COC(=O)[C@H]1C[C@@H](NC(=O)C2(C)CC(c3cc(F)cc(F)c3)=NO2)CO1` (relative stereo) [I-01, methyl cis-4-[[3-(3,5-difluorophenyl)-5-methyl-4H-isoxazole-5-carbonyl]amino]tetrahydrofuran-2-carboxylate], for which the pest or weed control at 80 g/ha in assay [1] fell in the range of 80 to 100%.
On to `C=C[C@]1(C(=O)N[C@H]2CO[C@@H](C(=O)OCC)C2)CC(c2cc(F)cc(F)c2)=NO1` (mixture of isomers) [I-35, ethyl cis-4-[[(5S)-3-(3,5-difluorophenyl)-5-vinyl-4H-isoxazole-5-carbonyl]amino]tetrahydrofuran-2-carboxylate], for which the results for the pest or weed control at 80 g/ha in the assay on Hordeum murinum, in the assay on Pharbitis purpurea and with Lolium rigidum were 100%, 90% and 100%, respectively. Besides, in the assay on Viola tricolor, the “Pre-emergence herbicidal activity against VIOTR in %” value was 100%.
As to `C=C[C@]1(C(=O)NC2COCC2C(=O)OC)CC(c2cc(F)cc(F)c2)=NO1` (stereo partly drawn) [I-26, methyl 4-[[(5S)-3-(3,5-difluorophenyl)-5-vinyl-4H-isoxazole-5-carbonyl]amino]tetrahydrofuran-3-carboxylate], the pest or weed control at 80 g/ha is 80 to 100% in assay [1] and 90% in the assay with Pharbitis purpurea.
Turning to `CCOC(=O)[C@H]1C[C@@H](NC(=O)C2(C)CC(c3cccc(F)c3)=NO2)CO1` (mixture of isomers) [I-30, ethyl cis-4-[[(5RS)-3-(3-fluorophenyl)-5-methyl-4H-isoxazole-5-carbonyl]amino]tetrahydrofuran-2-carboxylate], the pest or weed control at 80 g/ha in the assay on Hordeum murinum is 90%; in assay [1] it was 80 to 100%; in the assay with Lolium rigidum it was 100%.
For `CC1(C(=O)NC2COC(C(=O)O)C2)CC(c2cc(F)cc(F)c2)=NO1` (mixture of isomers) [I-41], the “Pre-emergence herbicidal activity against HORMU in %” value in the assay with Hordeum murinum is on record as 100%. The “Pre-emergence herbicidal activity against PHBPU in %” value in the assay on Pharbitis purpurea is listed as 90%. Also, the “Pre-emergence herbicidal activity against LOLRI in %” value with Lolium rigidum amounted to 100%.
Turning to `CC1(C(=O)N[C@H]2CO[C@@H](C(=O)OCc3ccccc3)C2)CC(c2cccc(F)c2)=NO1` (mixture of isomers) [I-34, benzyl cis-4-[[(5RS)-3-(3-fluorophenyl)-5-methyl-4H-isoxazole-5-carbonyl]amino]tetrahydrofuran-2-carboxylate], the pest or weed control at 80 g/ha in assay [1] is 80 to 100%; in the assay on Lolium rigidum, 100%.
As to `C=CC1(C(=O)N[C@H]2CO[C@@H](C(=O)O)C2)CC(c2cc(F)cc(F)c2)=NO1` (relative stereo) [I-21, cis-4-[[3-(3,5-difluorophenyl)-5-vinyl-4H-isoxazole-5-carbonyl]amino]tetrahydrofuran-2-carboxylic acid], the figures for the pest or weed control at 80 g/ha (in assay [1]; with Pharbitis purpurea) were 80 to 100% and 80%, respectively.
For `C=C[C@]1(C(=O)N[C@H]2CO[C@@H](C(=O)OC)C2)CC(c2cc(F)cc(F)c2)=NO1` (single isomer, unassigned) [I-12], the pest or weed control at 80 g/ha in the assay with Hordeum murinum and in the assay on Lolium rigidum was 100% throughout. Besides, in the assay on Viola tricolor, the “Pre-emergence herbicidal activity against VIOTR in %” value amounted to 100%.
As to `COC(=O)C1COCC1NC(=O)C1(OC)CC(c2cc(Cl)cc(Cl)c2)=NO1` (stereo not drawn) [I-29, methyl 4-[[3-(3,5-dichlorophenyl)-5-methoxy-4H-isoxazole-5-carbonyl]amino]tetrahydrofuran-3-carboxylate], the pest or weed control at 80 g/ha in assay [1] lay within 80 to 100%.
Consider `COC(=O)C1COCC1NC(=O)C1(OC)CC(c2cc(F)cc(F)c2)=NO1` (stereo not drawn) [I-27, methyl 4-[[3-(3,5-difluorophenyl)-5-methoxy-4H-isoxazole-5-carbonyl]amino]tetrahydrofuran-3-carboxylate], for which, in assay [1], the pest or weed control at 80 g/ha lay in the range of 80 to 100%. For the same compound, the “Pre-emergence herbicidal activity against VIOTR in %” value in the assay on Viola tricolor is recorded as 90%.
